Measured values as given in ChEMBL document CHEMBL1201862, “PubChem BioAssay data set” (2004).
Calls of active or inactive are those of the source.

What was measured:
[1] = molecular target: T1, E3 ubiquitin-protein ligase XIAP (Homo sapiens, UniProt P98170); assay: XIAP antagonists, biochemical, IAP family, fluorescence polarization (AID 1018); type: functional
[2] = cytotoxicity toward NIH3T3 fibroblasts, dose response, counter-screen, cell-based, ATP luminescence, mouse fibroblasts (AID 2010); type: functional;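 further: cells exposed to compound for about 90 hours before reading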
[3] = system: INS1; assay: beta cell apoptosis inhibitors, cytokine rescue, dose response, luminescence, retest (AID 449756); type: functional, cell-based; conditions: Rattus norvegicus;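 further: cell death triggered by IL-1 beta plus TNF-alpha plus IFN-gamma mixture; protective hits raise ATP signal compared with cytokine alone wells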
[4] = molecular target: T1, E3 ubiquitin-protein ligase XIAP; assay: Counter Screen using XIAP-Bir3 for Chemical Antagonists of Bir1/2 domains of IAP-family anti-apoptotic proteins. [Related pubchem assays (depositor defined):AID1018, AID1449, AID1514, AID1638, AID1749, AID1750, AID488957, AID488963]
[5] = inhibitors of intracellular T. cruzi replication, confirmation, NIH3T3 host cells, beta-gal luminescence (AID 2044); type: functional, cell-based;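 further: intracellular parasites grown in NIH/3T3 mouse fibroblasts as host cells; luminescent beta-galactosidase reporter signal from transgenic T. cruzi replicating inside host cells; inhibitors lower the luminescence signal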
[6] = system: CHO; assay: cytotoxicity in TLR9-MyD88 CHO cells, dose response, cytotoxicity control for TLR9-MyD88 binding inhibitor project, cell-based, luminescence (AID 588339); type: functional, hamster; conditions: Cricetulus griseus;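 further: CHO cells stably coexpressing TLR9 and MyD88 fusions from primary screen; compound exposure lasted 48 hours before viability readout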
[7] = molecular target: Beta Lactamase (Pseudomonas aeruginosa, UniProt Q932Y6); assay: beta-lactamase reporter inhibitor potency, dose response, artefact control for TLR9-MyD88 binding inhibitor project, BLA reporter cells, FRET fluorescence (AID 588341); type: cell-based;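 further: cell based assay in CHO-K1 cells stably expressing beta-lactamase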
[8] = NIH-3T3 fibroblast cytotoxicity, dose response, cytotoxicity control, cell-based, fluorescence, Alamar Blue, secondary assay (AID 2327); type: functional;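 further: NIH-3T3 mouse fibroblasts cultured with fluconazole at 8 µg/mL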
[9] = C. albicans growth with fluconazole, confirmation, fluorescence, retest (AID 2467); type: functional, cell-based
[10] = molecular target: ATP-dependent molecular chaperone HSP82 (Candida albicans (strain WO-1) (Yeast), UniProt C4YTQ8); assay: loss of DOC-induced GRE-beta-galactosidase reporter signal, dose response, Hsp90 inhibitor project, S. cerevisiae, luminescence (AID 2400); type: functional, cell-based;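 further: beta-galactosidase luminescence from glucocorticoid response element reporter as proxy for Hsp90 function; inhibitor potency where signal loss means Hsp90 inhibition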
[11] = molecular target: Serine/threonine-protein phosphatase (Candida dubliniensis (strain CD36 / CBS 7987 / NCPF 3949 / NRRLY-17841) (Yeast), UniProt B9W6M3); assay: calcineurin pathway inhibitors in yeast reporter, dose response, S. cerevisiae, CDRE-lacZ, luminescence, secondary (AID 2388); type: functional, cell-based;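 further: yeast reporter cells carrying a calcineurin-responsive lacZ construct stimulated with calcium chloride; luminescent beta-galactosidase reporter signal in whole cells rather than isolated phosphatase activity; potency for inhibition where a drop in reporter signal means calcineurin blockade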
[12] = molecular target: NACHT, LRR and PYD domains-containing protein 3 (Homo sapiens, UniProt Q96P20); assay: NALP3 inhibitors in yeast, dose response, luminescent (AID 488799); type: functional
[13] = system: Escherichia coli; assay: microbe, parasite or virus in culture
[14] = system: BJ; assay: cytotoxicity toward BJ-TERT-LT-ST fibroblasts, dose response, cell-based, RAS-independent, luminescence (AID 1935); type: functional; conditions: Homo sapiens;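 further: BJ fibroblasts immortalized with TERT plus LT and ST oncogenes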
[15] = system: BJ; assay: cytotoxicity toward BJ-TERT fibroblasts, dose response, cell-based, RAS-independent, luminescence (AID 1933); type: functional; conditions: Homo sapiens
[16] = system: HEK293; assay: cells; conditions: Homo sapiens
[17] = system: BJ; assay: cells; type: functional, cell-based; conditions: Homo sapiens
[18] = cytotoxicity toward DRD oncogenic fibroblasts, dose response, cell-based, non-viral oncogenic, luminescence (AID 1934); type: functional; conditions: Homo sapiens
[19] = system: HEK293; assay: cells; conditions: Homo sapiens; remark: listed apart in the source
[20] = molecular target: Ion channel NompC (Danio rerio, UniProt Q7T1G6); assay: Dose response cell-based high-throughput screening assay for agonists of the transient receptor potential channel N1 (TRPN1). [Related pubchem assays (depositor defined):AID1424, AID1448]; type: functional
[21] = molecular target: T2, Mucolipin-3 (Homo sapiens, UniProt Q8TDD5); assay: Fluorescence counterscreen assay for […] agonists: dose response cell-based high-throughput screening assay to identify agonists of the transient receptor potential channel ML3 (TRPML3). [Related pubchem assays: 1424, 1448 ]; type: functional
T2 sequence (Q8TDD5 whole entry): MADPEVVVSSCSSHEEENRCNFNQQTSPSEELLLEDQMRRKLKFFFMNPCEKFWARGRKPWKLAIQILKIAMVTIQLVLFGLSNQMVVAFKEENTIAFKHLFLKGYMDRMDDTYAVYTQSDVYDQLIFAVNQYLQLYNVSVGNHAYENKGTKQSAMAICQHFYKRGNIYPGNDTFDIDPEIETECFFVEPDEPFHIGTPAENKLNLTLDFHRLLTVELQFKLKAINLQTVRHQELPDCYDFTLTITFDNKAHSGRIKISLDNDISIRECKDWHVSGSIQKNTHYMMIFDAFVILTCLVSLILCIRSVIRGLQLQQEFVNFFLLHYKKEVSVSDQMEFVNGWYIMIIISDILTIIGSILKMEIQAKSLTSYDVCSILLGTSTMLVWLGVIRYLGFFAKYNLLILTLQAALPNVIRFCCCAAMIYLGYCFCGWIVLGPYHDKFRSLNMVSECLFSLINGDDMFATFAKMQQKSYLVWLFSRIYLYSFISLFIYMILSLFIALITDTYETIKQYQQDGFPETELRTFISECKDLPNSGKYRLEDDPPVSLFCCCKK

[22] = cytotoxicity in HMLE control line with eGFP shRNA, dose response, counter-screen for HMLE_sh_ECad selective toxicity project, cell-based, HMLE_sh_eGFP, luminescence (AID 463074); type: functional, Homo sapiens;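 further: HMLE human mammary epithelial cells expressing control shRNA against eGFP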
[23] = Luminescence Cell-Based Dose Retest to Confirm Inhibitors of Cancer Stem Cells. [Related pubchem assays (depositor defined):AID2717, AID2721]; type: functional; conditions: Homo sapiens
[24] = molecular target: T3, Corticotropin-releasing factor receptor 2/Corticotropin-releasing factor-binding protein (Homo sapiens, UniProt P24387+Q13324); assay: activators of CRF receptor 2 with binding protein – uHTS hits, confirmation (AID 602473); type: functional; conditions: read-out: EC50_Mean
T3 sequence (Q13324 whole entry): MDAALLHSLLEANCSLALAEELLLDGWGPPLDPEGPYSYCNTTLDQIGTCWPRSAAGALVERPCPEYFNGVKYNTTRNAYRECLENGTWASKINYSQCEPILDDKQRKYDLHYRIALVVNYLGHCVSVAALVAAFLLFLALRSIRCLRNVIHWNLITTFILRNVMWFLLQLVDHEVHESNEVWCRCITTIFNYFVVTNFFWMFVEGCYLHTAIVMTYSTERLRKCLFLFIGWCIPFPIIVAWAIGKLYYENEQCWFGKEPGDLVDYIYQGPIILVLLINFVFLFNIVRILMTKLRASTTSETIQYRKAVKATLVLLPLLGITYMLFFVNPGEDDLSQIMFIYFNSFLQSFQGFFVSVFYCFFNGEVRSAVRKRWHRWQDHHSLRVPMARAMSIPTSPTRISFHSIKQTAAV
T3 sequence (P24387 whole entry): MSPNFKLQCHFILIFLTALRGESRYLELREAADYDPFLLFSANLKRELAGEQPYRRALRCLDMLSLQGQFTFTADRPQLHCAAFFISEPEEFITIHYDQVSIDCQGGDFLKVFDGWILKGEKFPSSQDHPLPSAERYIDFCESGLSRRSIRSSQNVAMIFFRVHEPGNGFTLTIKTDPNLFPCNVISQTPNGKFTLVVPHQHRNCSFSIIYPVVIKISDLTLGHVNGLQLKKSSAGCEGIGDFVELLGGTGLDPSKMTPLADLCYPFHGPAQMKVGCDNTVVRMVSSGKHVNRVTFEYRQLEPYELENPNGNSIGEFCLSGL

[25] = HEp-2 cell cytotoxicity, dose response, cytotoxicity control for RSV inhibitor project, HTS (AID 2410); type: functional; conditions: human respiratory syncytial virus
[26] = cells
[27] = system: H4; assay: Luminescence Cell-Based Dose Response HTS to Identify Activators of 5'UTR Stem-Loop Driven Prion Protein mRNA Translation in H4 Neuroglioblastoma Cells. [Related pubchem assays: 1829 (Project Summary), 1814 (Primary HTS)]; type: functional; conditions: Homo sapiens
[28] = Luminescence Cell-Based Dose Response HTS to Identify Activators of Luciferase Translation or Activity in H4 […] Cells. [Related pubchem assays: 1829 (Project Summary), 1814 (Primary HTS)]; type: functional
[29] = molecular target: COUP transcription factor 2 (Homo sapiens, UniProt P24468); assay: Luminescence-based cell-based high throughput dose response assay to identify inhibitors of COUP-TFII (NR2F2).; type: functional;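 further: HEK293 cells transiently cotransfected with COUP-TFII expression vector and reporter; luciferase reporter luminescence driven by COUP-TFII from the pX2-168 reporter plasmid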
[30] = molecular target: Voltage-dependent T-type calcium channel subunit alpha-1H (Homo sapiens, UniProt O95180); type: functional;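 further: channel activity triggered by adding a high calcium stimulation buffer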
[31] = molecular target: Delta-type opioid receptor (Homo sapiens, UniProt P41143); assay: Counterscreen for agonists of heterodimerization of the mu 1 (OPRM1) and delta 1 (OPRD1) opioid receptors: Luminescence-based cell-based high throughput dose response assay to identify agonists of OPRD1 homodimerization. [Related pubchem assays (depositor defined):AID504326, AID504355, AID504692, AID504904, AID504905]; type: functional
[32] = molecular target: 5-hydroxytryptamine receptor 5A (Homo sapiens, UniProt P47898); assay: Counterscreen for agonists of OPRM1-OPRD1 heterodimerization: luminescence-based cell-based high throughput dose response assay to identify agonists of 5-hydroxytryptamine (serotonin) 5A receptor (HTR5A). [Related pubchem assays (depositor defined):AID504326, AID504355, AID504692, AID504904, AID504905]; type: functional
[33] = molecular target: Mu-type opioid receptor (Homo sapiens, UniProt P35372); assay: Counterscreen for agonists of heterodimerization of the mu 1 (OPRM1) and delta 1 (OPRD1) opioid receptors: Luminescence-based cell-based high throughput dose response assay to identify agonists of OPRM1 homodimerization.; type: functional;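 further: U2OS cells expressing OPRM1 and beta-arrestin as split beta-galactosidase partners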
[34] = molecular target: T4, Carboxy-terminal domain RNA polymerase II polypeptide A small phosphatase 1 (Homo sapiens, UniProt Q9GZU7); assay: inhibitors of CTDSP1, concentration-response testing, biochemical assay, absorbance-based, actives from ultra-high-throughput screening (AID 540297); type: functional
T4 sequence (Q9GZU7 whole entry): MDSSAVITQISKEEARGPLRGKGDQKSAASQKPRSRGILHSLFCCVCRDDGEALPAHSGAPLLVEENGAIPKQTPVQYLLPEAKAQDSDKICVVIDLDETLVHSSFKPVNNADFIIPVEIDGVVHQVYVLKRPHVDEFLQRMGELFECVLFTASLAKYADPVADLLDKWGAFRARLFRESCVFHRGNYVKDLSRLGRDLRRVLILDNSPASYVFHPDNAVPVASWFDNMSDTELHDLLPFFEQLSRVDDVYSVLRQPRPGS

T1 sequence (P98170 whole entry): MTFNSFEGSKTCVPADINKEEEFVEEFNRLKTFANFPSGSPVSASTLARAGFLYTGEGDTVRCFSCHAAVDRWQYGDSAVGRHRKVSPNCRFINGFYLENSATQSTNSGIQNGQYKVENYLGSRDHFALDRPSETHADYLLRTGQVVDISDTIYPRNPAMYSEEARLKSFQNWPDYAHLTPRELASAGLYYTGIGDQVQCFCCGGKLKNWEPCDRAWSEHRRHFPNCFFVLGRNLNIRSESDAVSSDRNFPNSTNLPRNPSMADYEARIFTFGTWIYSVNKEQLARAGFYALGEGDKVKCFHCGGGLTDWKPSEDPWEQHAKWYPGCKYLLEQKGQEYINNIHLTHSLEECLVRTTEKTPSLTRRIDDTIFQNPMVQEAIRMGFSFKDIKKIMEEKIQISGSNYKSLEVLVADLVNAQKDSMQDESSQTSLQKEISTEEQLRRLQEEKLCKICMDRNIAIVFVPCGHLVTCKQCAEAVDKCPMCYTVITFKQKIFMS
Chain of Ion channel NompC (Q7T1G6 whole entry): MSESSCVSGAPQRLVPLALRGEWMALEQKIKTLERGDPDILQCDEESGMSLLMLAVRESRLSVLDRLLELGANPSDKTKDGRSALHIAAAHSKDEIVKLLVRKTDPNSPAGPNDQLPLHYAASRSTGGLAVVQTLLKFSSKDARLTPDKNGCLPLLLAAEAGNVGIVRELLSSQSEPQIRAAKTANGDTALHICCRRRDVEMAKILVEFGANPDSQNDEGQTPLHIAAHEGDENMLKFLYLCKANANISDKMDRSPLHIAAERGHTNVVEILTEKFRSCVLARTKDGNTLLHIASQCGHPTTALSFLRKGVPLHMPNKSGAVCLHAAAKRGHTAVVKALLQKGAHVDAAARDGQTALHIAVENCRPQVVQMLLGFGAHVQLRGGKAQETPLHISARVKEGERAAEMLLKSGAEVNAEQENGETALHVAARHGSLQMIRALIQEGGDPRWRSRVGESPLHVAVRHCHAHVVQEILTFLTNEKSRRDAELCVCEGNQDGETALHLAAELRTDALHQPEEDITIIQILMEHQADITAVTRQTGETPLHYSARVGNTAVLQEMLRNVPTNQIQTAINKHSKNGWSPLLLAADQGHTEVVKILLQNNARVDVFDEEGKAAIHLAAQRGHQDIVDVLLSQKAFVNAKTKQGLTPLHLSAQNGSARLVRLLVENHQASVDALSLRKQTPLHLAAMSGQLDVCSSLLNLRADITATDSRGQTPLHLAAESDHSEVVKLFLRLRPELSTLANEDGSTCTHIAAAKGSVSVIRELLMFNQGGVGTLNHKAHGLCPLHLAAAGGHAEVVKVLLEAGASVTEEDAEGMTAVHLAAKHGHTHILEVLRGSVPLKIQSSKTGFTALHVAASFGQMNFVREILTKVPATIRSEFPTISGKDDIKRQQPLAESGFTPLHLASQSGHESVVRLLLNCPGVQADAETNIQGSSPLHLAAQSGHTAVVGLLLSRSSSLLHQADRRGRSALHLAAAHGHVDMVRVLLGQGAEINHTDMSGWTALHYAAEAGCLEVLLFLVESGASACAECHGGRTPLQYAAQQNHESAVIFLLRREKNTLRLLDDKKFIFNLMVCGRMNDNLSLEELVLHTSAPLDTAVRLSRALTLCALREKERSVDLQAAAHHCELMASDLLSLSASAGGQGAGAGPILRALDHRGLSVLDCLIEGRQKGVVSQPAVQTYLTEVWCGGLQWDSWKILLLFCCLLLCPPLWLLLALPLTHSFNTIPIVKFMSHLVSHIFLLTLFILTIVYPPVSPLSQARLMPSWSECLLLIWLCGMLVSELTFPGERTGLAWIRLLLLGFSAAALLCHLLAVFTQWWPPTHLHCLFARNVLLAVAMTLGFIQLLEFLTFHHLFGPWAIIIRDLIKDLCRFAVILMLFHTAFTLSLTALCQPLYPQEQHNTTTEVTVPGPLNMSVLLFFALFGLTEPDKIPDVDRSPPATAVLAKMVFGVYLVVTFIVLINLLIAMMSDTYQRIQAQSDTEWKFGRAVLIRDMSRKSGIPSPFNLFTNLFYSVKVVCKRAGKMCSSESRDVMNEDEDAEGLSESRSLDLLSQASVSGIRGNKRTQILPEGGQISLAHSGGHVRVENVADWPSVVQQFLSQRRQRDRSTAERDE
Chain of ATP-dependent molecular chaperone HSP82 (C4YTQ8 whole entry): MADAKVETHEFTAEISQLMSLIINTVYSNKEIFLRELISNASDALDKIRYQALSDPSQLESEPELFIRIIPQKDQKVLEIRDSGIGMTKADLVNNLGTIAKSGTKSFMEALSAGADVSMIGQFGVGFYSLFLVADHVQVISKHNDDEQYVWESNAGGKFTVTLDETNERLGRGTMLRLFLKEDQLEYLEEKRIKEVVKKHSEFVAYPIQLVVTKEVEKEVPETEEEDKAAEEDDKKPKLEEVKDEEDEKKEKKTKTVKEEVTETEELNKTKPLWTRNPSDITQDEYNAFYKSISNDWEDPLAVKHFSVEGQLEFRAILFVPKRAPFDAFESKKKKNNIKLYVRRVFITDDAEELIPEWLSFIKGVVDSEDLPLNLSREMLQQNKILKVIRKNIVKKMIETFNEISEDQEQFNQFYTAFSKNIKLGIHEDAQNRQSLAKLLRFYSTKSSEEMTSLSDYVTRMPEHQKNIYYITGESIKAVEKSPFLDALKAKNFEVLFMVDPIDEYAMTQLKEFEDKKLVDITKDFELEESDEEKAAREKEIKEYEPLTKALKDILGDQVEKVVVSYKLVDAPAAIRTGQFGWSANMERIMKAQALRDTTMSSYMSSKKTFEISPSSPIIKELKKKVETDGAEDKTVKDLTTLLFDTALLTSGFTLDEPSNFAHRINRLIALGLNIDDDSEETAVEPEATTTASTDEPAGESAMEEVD
Chain of Serine/threonine-protein phosphatase (B9W6M3 whole entry, the tested form may be a part): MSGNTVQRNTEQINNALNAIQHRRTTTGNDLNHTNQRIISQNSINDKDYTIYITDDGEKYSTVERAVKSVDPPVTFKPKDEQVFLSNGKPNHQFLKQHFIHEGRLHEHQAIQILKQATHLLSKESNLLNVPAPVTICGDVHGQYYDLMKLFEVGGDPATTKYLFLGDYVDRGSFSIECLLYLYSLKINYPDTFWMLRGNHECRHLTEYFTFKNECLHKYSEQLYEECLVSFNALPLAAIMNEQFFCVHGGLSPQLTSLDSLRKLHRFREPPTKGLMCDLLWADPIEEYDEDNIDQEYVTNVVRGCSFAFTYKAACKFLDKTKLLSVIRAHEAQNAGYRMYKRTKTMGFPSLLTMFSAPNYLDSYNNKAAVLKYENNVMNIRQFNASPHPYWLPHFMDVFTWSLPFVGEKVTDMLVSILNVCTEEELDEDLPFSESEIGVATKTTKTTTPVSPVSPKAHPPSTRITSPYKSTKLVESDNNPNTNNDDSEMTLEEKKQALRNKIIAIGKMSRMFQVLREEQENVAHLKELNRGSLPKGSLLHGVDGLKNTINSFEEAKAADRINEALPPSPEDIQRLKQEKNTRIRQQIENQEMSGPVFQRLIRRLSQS
Chain of Delta-type opioid receptor (P41143 whole entry): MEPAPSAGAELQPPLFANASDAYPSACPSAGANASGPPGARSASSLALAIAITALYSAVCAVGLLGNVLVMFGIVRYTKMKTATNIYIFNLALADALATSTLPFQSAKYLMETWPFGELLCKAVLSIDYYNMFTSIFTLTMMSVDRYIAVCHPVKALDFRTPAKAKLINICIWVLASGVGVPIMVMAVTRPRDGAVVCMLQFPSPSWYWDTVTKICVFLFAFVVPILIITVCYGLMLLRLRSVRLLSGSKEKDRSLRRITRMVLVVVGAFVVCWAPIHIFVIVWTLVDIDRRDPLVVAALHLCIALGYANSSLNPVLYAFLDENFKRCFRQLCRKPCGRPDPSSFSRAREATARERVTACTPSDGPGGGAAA
Chain of NACHT, LRR and PYD domains-containing protein 3 (Q96P20 whole entry, the tested form may be a part): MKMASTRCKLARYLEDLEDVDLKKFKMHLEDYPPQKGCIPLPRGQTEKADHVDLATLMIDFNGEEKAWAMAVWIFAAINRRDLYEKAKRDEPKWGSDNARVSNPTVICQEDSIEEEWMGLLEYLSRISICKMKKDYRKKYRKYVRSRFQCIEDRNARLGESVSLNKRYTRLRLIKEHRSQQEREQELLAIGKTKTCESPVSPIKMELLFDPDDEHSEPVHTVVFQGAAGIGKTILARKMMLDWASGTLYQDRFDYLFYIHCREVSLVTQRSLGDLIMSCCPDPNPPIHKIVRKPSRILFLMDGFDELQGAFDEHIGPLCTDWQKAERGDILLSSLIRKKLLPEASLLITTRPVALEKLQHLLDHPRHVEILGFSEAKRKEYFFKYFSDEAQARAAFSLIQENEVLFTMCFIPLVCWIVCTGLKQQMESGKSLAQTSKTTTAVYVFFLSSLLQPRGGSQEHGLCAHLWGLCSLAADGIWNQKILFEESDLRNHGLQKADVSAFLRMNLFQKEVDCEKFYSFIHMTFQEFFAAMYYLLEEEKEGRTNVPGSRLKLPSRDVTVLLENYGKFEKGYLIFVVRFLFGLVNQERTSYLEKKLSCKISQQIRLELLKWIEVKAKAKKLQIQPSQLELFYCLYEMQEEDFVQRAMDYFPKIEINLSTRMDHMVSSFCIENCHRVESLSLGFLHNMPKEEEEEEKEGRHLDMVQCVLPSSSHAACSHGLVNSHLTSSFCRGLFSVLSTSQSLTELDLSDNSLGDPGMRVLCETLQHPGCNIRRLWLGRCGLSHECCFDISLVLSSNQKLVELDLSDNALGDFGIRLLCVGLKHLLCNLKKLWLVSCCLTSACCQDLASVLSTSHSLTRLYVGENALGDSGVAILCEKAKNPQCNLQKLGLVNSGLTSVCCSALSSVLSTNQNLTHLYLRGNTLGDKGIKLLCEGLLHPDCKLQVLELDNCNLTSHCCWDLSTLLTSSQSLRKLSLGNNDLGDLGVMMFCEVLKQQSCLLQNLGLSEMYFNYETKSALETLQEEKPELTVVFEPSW

Structure (SMILES): Cc1nn(S(=O)(=O)c2ccc(Cl)cc2)c(C)c1Sc1ccc([N+](=O)[O-])cc1
- IC50 [1]: > 100 µM (not active)
- EC50 [2]: > 60 µM (not active)
- AC50 [3]: 6.21 µM (active)
- IC50 [4]: > 100 µM (inactive)
- EC50 [5]: 1.73 µM (active)

Structure (SMILES): O=C(/C=C(O)/C=C/c1ccc(O)cc1)/C=C/c1ccc(O)cc1
- IC50 [6]: 40 µM (inactive)
- IC50 [7]: 5.13 µM (active)

Structure (SMILES): CCOC(=O)N1C(=O)C2(CCCCC2)N(c2ccccc2Cl)C1=S
- EC50 [8]: 39.7 µM (active)
- EC50 [9]: < 0.03 µM (active)
- EC50 [10]: 23.1 µM (active)
- EC50 [11]: > 180 µM (inactive)
- IC50 [12]: 5.92 µM (active)

Structure (SMILES): CCCCNC(=O)CCCn1c(=O)[nH]c2ccc(Br)cc2c1=O
- AC50 [13]: 53.7 µM (active)

Structure (SMILES): C=CCOc1ccc2[nH]c(NC(=O)OC)nc2c1
- EC50 [14]: 1.46 µM (inconclusive)
- EC50 [15]: 1.69 µM (active)
- EC50 [16]: > 59.6 µM (inactive)
- EC50 [17]: 18.4 µM (inconclusive)
- EC50 [18]: 1.01 µM (active)
- EC50 [19]: > 59.6 µM (inactive)

Structure (SMILES): Cc1ccc(N2C(=O)CC(N3CCSCC3)C2=O)c(C)c1 (centres undefined)
- EC50 [20]: > 29.9 µM (inactive)
- EC50 [21]: > 29.9 µM (not active)

Structure (SMILES): O=[N+]([O-])c1c(C(Cl)Cl)nn(-c2ccc(Cl)cc2)c1N1CCCCC1
- EC50 [8]: > 150 µM (inactive)
- EC50 [9]: 0.436 µM (active)
- EC50 [10]: 18.7 µM (active)
- EC50 [11]: > 180 µM (inactive)

Structure (SMILES): COC(=O)c1c(NC(=O)Cc2cccs2)sc(C(=O)N2CCCCC2)c1C
- EC50 [16]: > 59.7 µM (inactive)
- EC50 [19]: > 59.7 µM (inactive)

Structure (SMILES): Clc1ccc(CSc2nnc(-c3cccnc3)n2Cc2ccco2)c(Cl)c1
- AC50 [22]: 31.4 µM (active)
- AC50 [23]: 28 µM (active)

Structure (SMILES): CCOC(=O)N1CCC(NC(=O)C(NC(=O)C2CCC(C)CC2)C(C)CC)CC1 (centres undefined)
- IC50 [1]: > 100 µM (not active)
- IC50 [4]: > 100 µM (inactive)

Structure (SMILES): CC(C)c1nc2c(c(=O)c3ccccc3n2C)c(=O)n1CCc1ccccc1
- EC50 [24]: 9.93 µM (active)
- EC50 [20]: 3.97 µM (active)
- EC50 [21]: 3.96 µM (active)
- CC50 [25]: 36 µM (active)
- IC50 [26]: 13.2 µM (active)

Structure (SMILES): O=c1oc(-c2ccccc2)nc2sc3c(c12)CCCC3
- EC50 [27]: 34.1 µM (active)
- AC50 [13]: 74.8 µM (active)
- EC50 [28]: 38.3 µM (active)

Structure (SMILES): Oc1ccc(Oc2ccc3c(C(F)(F)F)cc(C(F)(F)F)nc3n2)cc1
- IC50 [29]: 28.2 µM (inactive)
- EC50 [30]: 3.15 µM (active)
- EC50 [31]: > 92.5 µM (inactive)
- EC50 [32]: > 92.5 µM (inactive)
- EC50 [33]: > 92.5 µM (inactive)

Structure (SMILES): C/C(=N\NC(=O)c1cc(-c2cccc([N+](=O)[O-])c2)[nH]n1)c1ccccc1O
- EC50 [2]: 6.64 µM (active)
- IC50 [34]: 1.7 µM (active)
- AC50 [22]: 50.7 µM (active)
- AC50 [23]: 2.35 µM (active)
- EC50 [5]: 2.18 µM (active)
